Data on one substance can be found in US11975009B2, “Use of zinc porphyrin as an antimicrobial” (ZNABLE LLC, priority 2022, dated 2024).

Data set [1] is classed as physicochemical. An excerpt:
As used herein, “water soluble” refers to a property wherein a material is miscible in water, or in other words, is a capable of forming a homogenous solution with water at ambient conditions.

For data set [2], the system named is Pseudomonas aeruginosa (GN). Put plainly: Killing activity against a range of bacteria. It is filed as cell-based.
Data set [3] deals with Mycobacterium smegmatis (proxy for M. tuberculosis). Put plainly: Killing activity against a range of bacteria. It is filed as cell-based.
The test system of another data set is ex-vivo grown lung cells. Put plainly: Toxicity to ex-vivo grown lung cells versus effective concentration.
In another data set the test system is phage PEV2. The data set is described as follows: Inactivation of phage PEV2 (PFU titer). Set-up: species or system Pseudomonas phage PEV2. As to the method:
Phage PEV2 was diluted to 10^9 PFU/mL in phage buffer and treated with ZnPor (25 μg/mL) for a total of 4 hours. A 300 W light was used to photoactivate ZnPor_light treatments for 20 minutes. Measurements of plaque forming units (PFU/mL) were taken at each timepoint by serially diluting phage to determine titer using a soft agar overlay protocol. Data from 3 separate experiments represents total mean±standard error, total (n=8).

Another data set has as its system SA biofilm. The data set is described as follows: SA biofilm model with bioluminescence reporter. It is filed as cell-based, Staphylococcus aureus. The note with it: escalating doses of ZnPor vs PBS. As to the method:
Representative of one experiment.
Biofilm formation was an important defense mechanism utilized by bacteria and was associated with bacterial phenotypes that predict worse clinical outcomes in CF. A biofilm model was deployed using an SA strain with genetically embedded bioluminescence reporter to gauge efficacy of ZnPor against SA biofilm. Plastic plates were coated with bioluminescent SA and treated with escalating doses of ZnPor or PBS. Bioluminescence was measured via spectrophotometer.

Another data set deals with PsA PAO1 biofilm. The data set is described as follows: PAO1 biofilm on coupons, LIVE/DEAD stain, confocal microscopy. It is filed as cell-based, Pseudomonas aeruginosa. Here is the method:
FIG. 2A: ZnPor (alone) stained biofilm. […] Length of size bar: […].
FIGS. 15A-15B show the biofilms of PAO1 treated with various concentrations of ZnPor (II) and in combination with PEV2 phage. Biofilms of strain PAO1 were grown on coupons cut from polyethylene in MSG media for approximately 16-18 hours. Overnight media was replaced with fresh PBS and were treated with (FIG. 15B) ZnPor (II) only at concentrations of 5, 10 or 25 μg/mL, and incubated for 2 h, (FIG. 15A) phage PEV2 only (MOI=10:1) for 4 h, or (FIG. 15B) ZnPor (II) treatment for 2 h followed by the addition of phage PEV2 (MOI of 10:1) and incubated for an additional 4 h. Coupons were gently washed in distilled water and were treated with LIVE/DEAD™ stain. All coupons were imaged using confocal laser scanning […] microscopy (CLSM) at 60×. Green=LIVE Red=DEAD.
PAO1 was grown overnight in MSG at 37 C with shaking. CDC Bioreactors with PE coupons were inoculated to a final OD of 0.15 in cation adjusted Mueller Hinton broth. Biofilms were grown 16-18 h at 37 degrees C. with 50 rpm stirring. Control biofilm is shown (FIG. 20A). All overnight media in bioreactors were replaced with fresh PBS. Bioreactors treated with ZnPor (II) at 4 μg/mL were left to incubate for 2 hours without stirring. Bioreactors treated with either whole PEV2 phage or the purified DNA genome of PEV2 were incubated for 24 hours without stirring. […]

For data set [4], the system named is S. aureus MSSA and MRSA strains (GP). The data set is described as follows: Killing activity against a range of bacteria. Type of data set: cell-based, Staphylococcus aureus.
For a further data set, the system named is A549 cells. The data set is described as follows: Lung cell toxicity, traditional cell culture. Type of data set: cell-based, human. The note with it: concentration exceeding therapeutic range. An excerpt: Sample represented in graph is a traditional cell culture model and the cells were A549 cells—human lung epithelial cells.
The test system of data set [5] is Mycobacterium tuberculosis. Put plainly: Killing of acid fast bacterium. It is filed as cell-based. An excerpt: ZnPor (II) is the only porphyrin that kills Gram-positive and Gram-negative bacteria without photoactivation. […] Additionally, ZnPor (II) inactivates the bacteriophage PEV2, a well-studied bacteriophage of Pseudomonas aeruginosa. PEV2 is currently being used in phage therapy in Europe. […] While ZnPor (II) can inactivate phage, at lower concentrations it can act synergistically with bacteriophage PEV2 or the purified genome of PEV2 in remediation of biofilms of PsA. This is referred to as PAS Phage Antibiotic Synergy (PAS) and is of great interest and intense study; as a means to overcome several known limitations of phage-only “Phage Therapy”.

Take “meso-5,10,15-tris(N-methyl-4-pyridyl)-20-(pentafluorophenyl)porphyrinatozinc(II), tris-p-toluene sulfonate [ZnPor]”: the water solubility result in [1] is recorded as “water soluble”. For the same substance, the killing result in data set [2], in data set [3], in [4] and in data set [5] was “effective at killing” each time. For the same substance, the “effective concentration, fold lower than that causing any toxicity” value in the data set on ex-vivo grown lung cells is recorded as “up to 100 ×”. Besides, in the data set on phage PEV2 (with photoactivation), the “effect of photoactivation on killing” value was “quicker and greater killing”. In addition, the inactivation of viruses entry in the data set on phage PEV2 (without light activation) is “able to inactivate viruses without light activation”. Further, the “effect on bacteriophage PEV2” value in the data set with phage PEV2 (without photoactivation) was “inactivates”. Besides, the “biofilm formation by bioluminescence” value in the data set with SA biofilm is given as “significantly less biofilm formation”. The biofilm clearing result in the data set with PsA PAO1 biofilm (25 μg/mL ZnPor alone, 2 h) was “almost complete clearing of the biofilm”. Moreover, the “LIVE/DEAD state of biofilm” value in the data set with PsA PAO1 biofilm (pre-treated with ZnPor (II) 4 μg/mL before adding PEV2 whole phage) is reported as “only dead cells”. For the same substance, the toxicity entry in the data set on A549 cells was “No toxicity was observed”.
